This note sets out measurements from US20230329236A1, “HERBICIDAL PYRIMIDINE DERIVATIVES” (MoA Technology Limited, priority 2020, published 2023).

Structures are written as SMILES.

The test system of the first experiment is Echinochloa crus-gaffi (ECHCG). Briefly: Post-emergence glasshouse test, visual injury, ECHCG. In kind it is in vivo, Echinochloa crus-galli. The following applies: 336 h, Table 3, post-emergence, 500 g/ha, 14±1 days post application. An outline of the steps:
(§1)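 Plants were grown in sandy loam and sprayed post-emergence at BBCH 12-14. The spray was derived from acetone/water (50:50) containing 0.5% Tween 20, dosed as g/ha active ingredient. Percent visual damage versus untreated plants was scored after 14±1 days under controlled glasshouse conditions.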
The pest or weed control is the degree to which the test organism was suppressed or injured, in per cent. Lower therefore signals a weak effect. As to `Cc1cc(-c2cnc(N(C)C)nc2-c2ccc(C)o2)on1` [Compound 43], the pest or weed control at 500 g/ha is 60%.
Still for that read-out and setting: as for `Cc1cc(-c2cnc(NCc3cccnc3)nc2C(C)C)on1` [Compound 28], the figure is 70%.
Compound `Cc1cc(-c2cnc(N3CCC(O)CC3)nc2C2CC2)on1` [Compound 71] returned a pest or weed control at 500 g/ha of 60%.
Take `CCN1CCN(c2ncc(-c3cc(C)no3)c(C(C)C)n2)CC1` [Compound 63]: the pest or weed control at 500 g/ha was found to be 50%.
In turn, `Cc1cc(-c2cnc(NCc3ccccn3)nc2C(C)C)on1` [Compound 39] gave a pest or weed control at 500 g/ha of 20%.
Same read-out and setting: as for `Cc1cc(-c2cnc(N3CCC(C(N)=O)CC3)nc2C(C)C)on1` [Compound 69], the figure is 0%; as for `Cc1cc(-c2cnc(N3CCCCC3)nc2C(C)C)on1` [Compound 56], 0%.
The same measure, in the same setting: the result for `Cc1cc(-c2cnc(NC3CCCC3)nc2-c2ccc(C)o2)on1` [Compound 24] reads 70%.
Turning to `C=COCCCNc1ncc(-c2cc(C)no2)c(C(C)(C)C)n1` [Compound 33], the pest or weed control at 500 g/ha came to 70%.
`COCCCNc1ncc(-c2cc(C)no2)c(-c2ccc(C)o2)n1` [Compound 27] had a pest or weed control at 500 g/ha of 20%.
With `COc1ccc(CNc2ncc(-c3cc(C)no3)c(C3CC3)n2)cc1OC` [Compound 52], the pest or weed control at 500 g/ha came out at 70%.
The same measure, in the same setting: as for `Cc1cc(-c2cnc(NCCc3c(C)noc3C)nc2C(C)(C)C)on1` [Compound 68], the figure is 0%.

Staying with this experiment, now noted: 336 h, Table 3, post-emergence, 1000 g/ha, 14±1 days post application.
`COc1cc(CNc2ncc(-c3cc(C)no3)c(C(C)C)n2)cc(OC)c1` [Compound 15] returned a pest or weed control at 1000 g/ha of 30%.

For a further experiment, the system named is Amaranthus retroflexus (AMARE). Briefly: Post-emergence glasshouse test, visual injury, AMARE. In kind it is in vivo. The note with it: 336 h, Table 3, post-emergence, 500 g/ha, 14±1 days post application. In outline:
as §1
In turn, `Cc1cc(-c2cnc(N(C)C)nc2-c2ccc(C)o2)on1` [Compound 43] had a pest or weed control at 500 g/ha of 50%.
Compound `Cc1cc(-c2cnc(NCc3cccnc3)nc2C(C)C)on1` [Compound 28] had a pest or weed control at 500 g/ha of 90%.
Still for that read-out and setting: as for `Cc1cc(-c2cnc(N3CCC(O)CC3)nc2C2CC2)on1` [Compound 71], the figure is 90%; as for `CCN1CCN(c2ncc(-c3cc(C)no3)c(C(C)C)n2)CC1` [Compound 63], 70%.
Compound `Cc1cc(-c2cnc(NCc3ccccn3)nc2C(C)C)on1` [Compound 39] had a pest or weed control at 500 g/ha of 70%.
In turn, `Cc1cc(-c2cnc(N3CCC(C(N)=O)CC3)nc2C(C)C)on1` [Compound 69] came in with a pest or weed control at 500 g/ha of 50%.
The compound `Cc1cc(-c2cnc(N3CCCCC3)nc2C(C)C)on1` [Compound 56] gave a pest or weed control at 500 g/ha of 70%.
Same read-out and setting: as for `Cc1cc(-c2cnc(NC3CCCC3)nc2-c2ccc(C)o2)on1` [Compound 24], the figure is 50%; as for `C=COCCCNc1ncc(-c2cc(C)no2)c(C(C)(C)C)n1` [Compound 33], 80%; as for `COCCCNc1ncc(-c2cc(C)no2)c(-c2ccc(C)o2)n1` [Compound 27], 70%.
`COc1ccc(CNc2ncc(-c3cc(C)no3)c(C3CC3)n2)cc1OC` [Compound 52] returned a pest or weed control at 500 g/ha of 80%.
On the same count and under the same terms, as for `Cc1cc(-c2cnc(NCCc3c(C)noc3C)nc2C(C)(C)C)on1` [Compound 68], the figure is 80%.

The experiment is the same for the next values; noted with them: 336 h, Table 3, post-emergence, 1000 g/ha, 14±1 days post application.
`COc1cc(CNc2ncc(-c3cc(C)no3)c(C(C)C)n2)cc(OC)c1` [Compound 15] showed a pest or weed control at 1000 g/ha of 60%.

The test system of a further experiment is Veronica persica (VERPE). Briefly: Post-emergence glasshouse test, visual injury, VERPE. In kind it is in vivo. The note with it: 336 h, Table 3, post-emergence, 500 g/ha, 14±1 days post application. An outline of the steps: as §1
Turning to `Cc1cc(-c2cnc(N(C)C)nc2-c2ccc(C)o2)on1` [Compound 43], the pest or weed control at 500 g/ha worked out at 0%.
On the same count and under the same terms, the result for `Cc1cc(-c2cnc(NCc3cccnc3)nc2C(C)C)on1` [Compound 28] reads 98%; that for `Cc1cc(-c2cnc(N3CCC(O)CC3)nc2C2CC2)on1` [Compound 71], 40%.
Still for that read-out and setting: as for `CCN1CCN(c2ncc(-c3cc(C)no3)c(C(C)C)n2)CC1` [Compound 63], the figure is 0%; as for `Cc1cc(-c2cnc(NCc3ccccn3)nc2C(C)C)on1` [Compound 39], 80%; as for `Cc1cc(-c2cnc(N3CCC(C(N)=O)CC3)nc2C(C)C)on1` [Compound 69], 60%.
Still for that read-out and setting: as for `Cc1cc(-c2cnc(N3CCCCC3)nc2C(C)C)on1` [Compound 56], the figure is 0%; as for `Cc1cc(-c2cnc(NC3CCCC3)nc2-c2ccc(C)o2)on1` [Compound 24], 0%; as for `C=COCCCNc1ncc(-c2cc(C)no2)c(C(C)(C)C)n1` [Compound 33], 0%.
With `COCCCNc1ncc(-c2cc(C)no2)c(-c2ccc(C)o2)n1` [Compound 27], the pest or weed control at 500 g/ha stood at 50%.
Consider `COc1ccc(CNc2ncc(-c3cc(C)no3)c(C3CC3)n2)cc1OC` [Compound 52], for which the pest or weed control at 500 g/ha turned out to be 70%.
`Cc1cc(-c2cnc(NCCc3c(C)noc3C)nc2C(C)(C)C)on1` [Compound 68] had a pest or weed control at 500 g/ha of 0%.

Still in this experiment, the particulars now being: 336 h, Table 3, post-emergence, 1000 g/ha, 14±1 days post application.
As for `COc1cc(CNc2ncc(-c3cc(C)no3)c(C(C)C)n2)cc(OC)c1` [Compound 15], the pest or weed control at 1000 g/ha is 100%.

The next experiment relates to Lolium multiflorum (LOLMU). Nature of the experiment: Post-emergence glasshouse test, visual injury, LOLMU. The experiment is classed as in vivo. The note with it: 336 h, Table 3, post-emergence, 500 g/ha, 14±1 days post application. In outline: as §1
`Cc1cc(-c2cnc(N(C)C)nc2-c2ccc(C)o2)on1` [Compound 43] displayed a pest or weed control at 500 g/ha of 40%.
Take `Cc1cc(-c2cnc(NCc3cccnc3)nc2C(C)C)on1` [Compound 28]: the pest or weed control at 500 g/ha came to 0%.
Same read-out and setting: the result for `Cc1cc(-c2cnc(N3CCC(O)CC3)nc2C2CC2)on1` [Compound 71] reads 0%; that for `CCN1CCN(c2ncc(-c3cc(C)no3)c(C(C)C)n2)CC1` [Compound 63], 30%.
On the same count and under the same terms, the result for `Cc1cc(-c2cnc(NCc3ccccn3)nc2C(C)C)on1` [Compound 39] reads 0%; that for `Cc1cc(-c2cnc(N3CCC(C(N)=O)CC3)nc2C(C)C)on1` [Compound 69], 0%.
The compound `Cc1cc(-c2cnc(N3CCCCC3)nc2C(C)C)on1` [Compound 56] registered a pest or weed control at 500 g/ha of 10%.
On the same count and under the same terms, as for `Cc1cc(-c2cnc(NC3CCCC3)nc2-c2ccc(C)o2)on1` [Compound 24], the figure is 0%; as for `C=COCCCNc1ncc(-c2cc(C)no2)c(C(C)(C)C)n1` [Compound 33], 0%; as for `COCCCNc1ncc(-c2cc(C)no2)c(-c2ccc(C)o2)n1` [Compound 27], 0%.
On the same count and under the same terms, as for `COc1ccc(CNc2ncc(-c3cc(C)no3)c(C3CC3)n2)cc1OC` [Compound 52], the figure is 40%; as for `Cc1cc(-c2cnc(NCCc3c(C)noc3C)nc2C(C)(C)C)on1` [Compound 68], 0%.

Staying with this experiment, now noted: 336 h, Table 3, post-emergence, 1000 g/ha, 14±1 days post application.
On to `COc1cc(CNc2ncc(-c3cc(C)no3)c(C(C)C)n2)cc(OC)c1` [Compound 15], for which the pest or weed control at 1000 g/ha worked out at 0%.
